Reference: a melting point compilation (Tetko et al.; mined from patent text by program, amines drawn as free bases though some values may be those of a salt)

SMILES	melting point [°C]
N=C(N)Nc1ccc(CCCC(=O)NC(COCc2ccccc2)C(=O)NCCCC(CCCNC(=O)OCc2ccccc2)NC(=O)OCc2ccccc2)cc1 (stereo unspecified)	157 to 160
O=C(c1ccccc1)C1CCCS1(=O)=O (stereo unspecified)	90 to 94
COc1cc(Nc2c(C#N)cnc3cc(/C=C/CN4CCOCC4)c(OC)cc23)c(Cl)cc1Cl	105 to 106
COc1ccc2c(c1)c(Cc1cc(=O)n(-c3cccc([N+](=O)[O-])c3)[nH]1)c(C)n2C(=O)c1ccc(Cl)cc1	95 to 97
C[C@@H]1NC(=O)c2cccc([N+](=O)[O-])c2N[C@H]1C (relative stereo)	170
Nc1nc(NCCO)c2ncn(C3C=CC(CO)C3)c2n1 (stereo unspecified)	150 to 152
CC(C)NC(=S)NC(=O)c1ccc(C#N)cc1	156 to 157
CCCCCCCCCCCCCCCCn1c(C2=CC(=O)c3ccccc3C2=O)ccc1C1=CC(=O)c2ccccc2C1=O	40 to 43
Cn1cccc1-c1ccc2c(c1)C1(CCCCC1)C(=O)N2	210
COc1cc(C(=O)O)ccc1Cn1ccc2ccc(NC(=O)OC3CCCC3)cc21	237 to 238
CN1OC(c2ccc(Cl)cc2)CC1(Cn1ccnc1)c1ccco1 (stereo unspecified)	99 to 101
CCc1n[nH]c(=O)n1C	86
CCCc1c(-c2ccncc2)[nH]c(-c2ccncc2)c1C(=O)OCC	209 to 211
CCN(CC)Cc1ccc(CN2C(=O)COc3ccc(C=C4SC(=O)NC4=O)cc32)cc1	244 to 246
CCCc1c(COc2ccc(-c3nnn[nH]3)cc2)ccc(C(C)=O)c1O	203 to 205
Cc1nc(O)cc(C(F)(F)F)n1	141 to 143
CCCOc1ccc(CC(=O)NCC(=O)OC)cc1Cl	76 to 80
O=C(c1ccc(F)cc1F)N1CCc2cc(S(=O)(=O)N3CC(c4ccccc4)NC3=O)ccc21 (stereo unspecified)	128
Cc1cccc(Nc2ncnc3ccc(CSc4nccn4C)cc23)c1	137 to 139
CCC(COc1cccc(C(F)(F)F)c1)OC(=O)NCc1ccccc1 (stereo unspecified)	73 to 74
CN(c1ccncc1)n1cccc1CO	145 to 148
Cc1ccnc(F)c1N	63 to 64
Cc1c(NC(=O)CC(C)(C)C)c(C)c2c(c1C(O)CO)OCC2c1ccc(C(C)C)cc1 (stereo unspecified)	159 to 161
CNC(=O)c1ccc(-c2ccc3oc(C4CCN(C(=O)OC(C)C)CC4)nc3c2)cc1F	116 to 120
CC(CCC(F)(F)C(C)(C)O)C1CCC2C3CCC4=CC(=O)CCC4(C)C3CCC12C (stereo unspecified)	177 to 178
CCCCCC(CC(=O)Nc1cc(CCC(=O)NC)ccc1C(C)(C)C)c1c(OC)cccc1OC (stereo unspecified)	111 to 112

SMILES	melting point [°C]
Cc1nc2cc(C(F)(F)F)ccc2n1NC(=O)c1ccc(Cl)c(S(N)(=O)=O)c1	193 to 195
CCOC(=O)C=Cc1ccc([N+](=O)[O-])c(O)c1	95
O=C1c2ccccc2C(=O)c2[nH]c(-c3ccccc3)nc21	> 260
CCOc1cc(C(=O)CCCC2CCCCC2)c(OCC)cc1C	49 to 50
CSc1cc(C(C)(C)C)nn1C(=O)N(C)C	56 to 58
COC(=O)c1c(N)c(-c2ccc(I)cc2)nc2ccc(F)cc12	223 to 225
O=C(Nc1cccc(F)c1)NC1CCN(S(=O)(=O)c2ccc(Cl)cc2)CC1	245 to 248
CS(=O)(=O)c1ccc(C(=O)C(C#N)C(=O)C2CC2)c(Cl)c1-c1nccs1 (stereo unspecified)	162 to 164
CC(C)c1nn(-c2ccc(C(F)(F)F)cc2)cc1C=O	81 to 82
O=C1CCN(C2c3ccccc3-c3ccccc32)CC1	135
Cn1c(C(F)(F)F)cc(=O)n(-c2ccc(Cl)c3nc(N4CCCCC4)sc23)c1=O	102 to 104
Cc1ncc2cc(-c3c(Cl)cccc3Br)c(N)nc2n1	272 to 274
Cc1cc(N)nc(CCc2nc3cc(-c4ccccc4)cnc3[nH]2)c1	230
O=C(O)CCCOc1ccc(CSc2[nH]nc(NS(=O)(=O)c3c(Cl)cccc3Cl)c2-c2ccccn2)cc1	183 to 185
COc1ccc(C(C[N+](=O)[O-])SC(=S)N(C)C)cc1 (stereo unspecified)	86 to 89
Cc1oc(-c2ccco2)nc1COc1ccc(CC(=O)O)cc1	139 to 140
CC(=O)OCC1OC(OCC(C)=CCN2C(=O)c3ccccc3C2=O)C(OC(C)=O)C(OC(C)=O)C1OC(C)=O (stereo unspecified)	104 to 105
CCCCC(CC)COc1ccc2c(Br)c3cc(OCC(CC)CCCC)ccc3c(Br)c2c1 (stereo unspecified)	103 to 105
O=C1c2ccccc2C(=O)N1Cc1cc(=O)c(OC(c2ccccc2)c2ccccc2)cn1OC(c1ccccc1)c1ccccc1	145 to 147
CC(=O)OCC1OC(Oc2ccsc2C(=O)c2ccc(OC(F)(F)F)cc2)C(OC(C)=O)C(OC(C)=O)C1OC(C)=O (stereo unspecified)	90 to 93
CCOC(=O)c1cnc(-c2ccc(C(F)(F)F)cc2)s1	98 to 110
ON=C(c1cccc(F)c1)c1cccc2nc(N[C@@H]3CCc4ccccc43)ccc12	180
CNC(=O)/C(=N/OC)c1ccccc1Oc1cc(C)cc(C)c1	90 to 91
CCCN(CCC)[C@@H]1CCc2ccc(C(N)=O)cc2C1	132
N#CC(C(=O)Nc1cccnc1)C(=O)c1nn(-c2ccccc2)c2c1COc1ccccc1-2 (stereo unspecified)	280 to 282
CCN1C=C(C(=O)c2c(C)nn3ccccc23)CCC1	104 to 105

SMILES	melting point [°C]
CSCc1cnc(Cl)nc1	56 to 57
COc1cc2c(cc1C(F)(F)F)N(C(=O)Nc1cncc(-c3c(F)cccc3F)c1)CC2	217 to 219
O=C1OC(=O)C2CC(F)(F)CC12 (stereo unspecified)	50
O=C(NCC(C(=O)Nc1n[nH]c(=S)s1)c1ccccc1)OCc1ccccc1 (stereo unspecified)	201 to 202
CCOC(=O)Cc1nc(N)cc(Cl)n1	127 to 128
COc1cc(C(=O)Nc2nc(C)c(C(=O)NCc3ccccc3)s2)ccn1	188 to 190
O=C(Oc1ccc([N+](=O)[O-])cc1)Oc1ccc2oc3ccccc3c2c1	183 to 185
COc1cc(NC(C)=O)c(Cl)cc1C(=O)[NH+]([O-])C1CCN(CC2CCCCC2)CC1 (stereo unspecified)	206 to 208
O=C(NCCC1CCCCCCCCCCC1)C1=C(O)COC1=O	135 to 137
Oc1cc(-c2c(-c3ccccc3)nn3ccccc23)n[nH]1	> 300
Cn1c(=O)c(=O)[nH]c2ccccc21	277 to 286
Cc1cc(C)cc(C=CC#N)c1	67 to 68
COc1ccc(C(=O)c2cc(-c3ccncc3)c(N3CCOCC3)s2)cc1	193
Cc1ncnn1C[Si](C)(C)c1ccc(-c2ccccc2)cc1	95 to 98
Cc1cc(Oc2ccc([N+](=O)[O-])cc2)n[nH]1	124 to 125
CCOc1cccc(-n2cnc(-c3nc(CC)no3)c2)c1	120 to 121
Nc1nc(N)c2ncn(C3C=CC(CO)C3)c2n1 (stereo unspecified)	152 to 155
Cc1cc(C)nc(NCC(O)CO)n1 (stereo unspecified)	124 to 127
O=C(O)CCCCCCCCC=Cc1ccco1	45 to 46
COc1ccc2c(CC3=C(CC(=O)O)CCC3=O)cccc2c1C(F)(F)F	59 to 61
Cn1ccc2cccc(C(=O)N3CCN(c4ncccn4)CC3)c21	159 to 160
N#Cc1cc(S(=O)(=O)C(F)(F)F)[nH]c1-c1ccc(Cl)cc1	228 to 230
CCC(=O)NC(C)(C)CSc1cc(C)c(Cl)cc1C	78 to 81
N#CCCNC(=O)c1cc(F)cc(-c2cccc3cc(Cc4cc(F)cc(Cl)c4)sc23)c1	113 to 114
CN(C)S(=O)(=O)Oc1ccc2c(c1)CCC1C2CCC2(C)C(O)C(O)CC12 (stereo unspecified)	180 to 181
COc1c(N2C[C@H](CF)[C@](C)(N)C2)c(F)cc2c(=O)c(C(=O)O)cn(C3CC3)c12	226 to 229

SMILES	melting point [°C]
N#CCC1OC(n2cnc3c(NN4CCC(Sc5ccccc5)CC4)nc(Cl)nc32)C(O)C1O (stereo unspecified)	159 to 161
CCCCCCCCCCCCCCCCn1c(-c2ccc(Cl)c(N)c2)nnc1-c1ccc(Cl)c(N)c1	88 to 90
OCC=Cc1ccc(-c2cnc(CSCCOc3ccccc3)o2)cc1	73 to 74
CNc1nc(=O)c2cccnc2n1Cc1ccc(F)cc1	242 to 246
CCOC(=O)C1(N2C(=O)c3cccc(F)c3C2=O)CC1	164
CCOCCn1cc(C2CCN(CCOc3cc(OC)ccc3C(=O)O)CC2)c2cccnc21	106 to 108
CC(=O)Oc1ccc(C(CC(=O)O)CC(=O)OCC(=O)C2CCC3C4CCC5=CC(=O)CCC5(C)C4C4CC23C(O)O4)cc1 (stereo unspecified)	145 to 160
CCCc1cc(=O)oc2cc(OC(=O)C(C)(C)C)cc(OC(=O)C(C)(C)C)c12	110 to 112
CCc1cccc(C)c1CNc1nc(C(=O)O)cc2c1nc(C)n2C	233 to 236
COc1cc2c(c(OS(=O)(=O)c3ccc(C)cc3)c1OC)C1=C(CCC1)C(=O)CC2	138
Cc1ccc(N2C(=O)NC(NCC(C)C)NC2=O)cc1	297 to 301
O=C(O)COc1cccc2c1CCCC2CCOC(=O)N(c1ccccc1)c1ccccc1 (stereo unspecified)	145
O=C(O)CNC(=O)Nc1cccc(C(=O)O)c1	196 to 197
CC(=O)O[C@H]1C[C@@H](n2cc(C)c(=O)[nH]c2=O)[C@H](O)[C@@H]1O (racemic)	58 to 61
O=C(/C=C/c1ccc2ccccc2c1)Nc1cc(Cl)c(Cl)cc1S(=O)(=O)O	229
CC(C)(NS(=O)(=O)c1ccc(-c2ccccn2)s1)C(=O)NO	165 to 166
CCCCCCCCCCCSCCCN=C=O	91 to 93
CCc1cn([C@@H]2CO[C@H](CO)O2)c(=O)[nH]c1=O	132 to 133
CSc1ncc(C(O)c2ccc(C)nc2)c(O)n1 (stereo unspecified)	140
CC(=O)NCCNC(=O)c1ccc(Br)o1	175 to 176
Nc1nc(F)nc2nc[nH]c12	> 300
COc1ccc2onc(Nc3ccncc3)c2c1	248 to 251
Cc1ccc(CC(CNC(=S)NC(C)c2ccc(NS(C)(=O)=O)c(F)c2)COC(=O)C(C)(C)C)cc1C (stereo unspecified)	73
